Results on nine compounds are retold here after US20030180808A1, “Drug signatures” (priority 2002, published 2003).

Entries after “also recorded” stand apart in the source; their conditions may differ. Like-named read-outs stand apart in the source and are kept apart here.

For series [1], the system named is 123 assays completed (panel of sites of drug action and drug toxicity). Briefly: Molecular pharmacology assay panel (MDS-Pharma Services catalog). The following applies: for activity in the 123 assays completed: <50% inhibition binned as 0, preliminary test at 30 μM.
For series [2] the following is noted: hypertriglyceridemic patients; known side effect; cited from earlier work.
The conditions of series [3]: rats, from the literature or experience, cited from earlier work.
Series [4] has as its target T1, estrogen receptor (Homo sapiens, UniProt P03372).
T1 sequence (P03372 1-595): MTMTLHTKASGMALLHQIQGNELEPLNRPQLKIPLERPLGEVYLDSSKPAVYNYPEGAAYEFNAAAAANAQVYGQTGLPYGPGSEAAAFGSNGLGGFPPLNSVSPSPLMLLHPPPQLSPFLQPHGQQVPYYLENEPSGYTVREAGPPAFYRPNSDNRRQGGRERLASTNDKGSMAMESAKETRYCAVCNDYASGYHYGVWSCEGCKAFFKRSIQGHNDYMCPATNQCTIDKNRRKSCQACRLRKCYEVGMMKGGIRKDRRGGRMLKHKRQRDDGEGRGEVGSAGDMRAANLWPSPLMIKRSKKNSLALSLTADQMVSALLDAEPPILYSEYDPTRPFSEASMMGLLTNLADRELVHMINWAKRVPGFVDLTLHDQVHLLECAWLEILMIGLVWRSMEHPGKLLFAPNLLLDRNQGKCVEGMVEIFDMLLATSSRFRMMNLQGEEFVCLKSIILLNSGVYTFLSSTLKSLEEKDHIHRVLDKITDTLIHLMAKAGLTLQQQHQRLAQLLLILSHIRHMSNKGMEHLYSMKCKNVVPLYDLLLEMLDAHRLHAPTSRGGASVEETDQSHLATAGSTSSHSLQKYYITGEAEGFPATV
To be noted: read-out: EC50 stimulation of ER; cited from earlier work.

Another series has as its target T2, PXR receptors (Mus musculus, UniProt O54915).
T2 sequence (O54915 1-431): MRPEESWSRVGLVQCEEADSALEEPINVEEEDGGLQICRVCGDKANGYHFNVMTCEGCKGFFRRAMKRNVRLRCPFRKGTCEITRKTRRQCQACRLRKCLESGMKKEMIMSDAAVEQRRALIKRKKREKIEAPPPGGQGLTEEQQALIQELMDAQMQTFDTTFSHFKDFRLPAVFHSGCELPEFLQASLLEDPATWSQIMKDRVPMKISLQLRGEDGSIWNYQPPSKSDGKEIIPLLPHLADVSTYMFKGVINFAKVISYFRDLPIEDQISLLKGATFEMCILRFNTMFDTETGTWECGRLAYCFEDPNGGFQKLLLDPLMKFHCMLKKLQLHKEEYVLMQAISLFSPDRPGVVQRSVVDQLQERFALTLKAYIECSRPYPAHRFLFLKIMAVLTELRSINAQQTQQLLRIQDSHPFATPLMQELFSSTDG
To be noted: cited from earlier work.

In another series the target is T3, PPARα (Homo sapiens, UniProt Q07869).
T3 sequence (Q07869 1-468): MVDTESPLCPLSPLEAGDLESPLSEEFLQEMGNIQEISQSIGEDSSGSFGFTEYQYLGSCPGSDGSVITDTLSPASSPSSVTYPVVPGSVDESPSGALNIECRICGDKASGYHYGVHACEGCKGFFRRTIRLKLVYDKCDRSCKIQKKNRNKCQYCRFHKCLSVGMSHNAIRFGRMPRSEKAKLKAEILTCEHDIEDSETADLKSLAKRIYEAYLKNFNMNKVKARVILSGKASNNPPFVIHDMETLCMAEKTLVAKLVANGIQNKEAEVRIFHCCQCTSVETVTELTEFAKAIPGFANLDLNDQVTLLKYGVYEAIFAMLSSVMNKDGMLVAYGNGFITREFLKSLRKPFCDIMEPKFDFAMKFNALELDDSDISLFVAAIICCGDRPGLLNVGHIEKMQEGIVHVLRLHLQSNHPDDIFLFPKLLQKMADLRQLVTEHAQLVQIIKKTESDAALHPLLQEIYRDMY
To be noted: cited from earlier work.

Series [5] has as its target T1, estrogen receptor. Put plainly: Molecular pharmacology panel assay: estrogen receptor.
A further series relates to site-2 sodium channel. Put plainly: Molecular pharmacology panel assay: site-2 sodium channel.

As to `Cc1ccc(C)c(OCCCC(C)(C)C(=O)O)c1` [Gemfibrozil, gemfibrozil], the “activity in the 123 assays completed” value in series [1] was “no activity”. Further, the “effect on LDL levels” value in series [2] is on record as “induce an increase in LDL (low density lipoprotein) levels; also recorded: induces an increase in LDL levels”. In addition, in series [3] (oral gavage in 1% NaCMC), the “maximum tolerated dose (MTD)” value is 300 mg/kg.

In the case of `C[C@]12CC[C@@H]3c4ccc(OC(=O)c5ccccc5)cc4CC[C@H]3[C@@H]1CC[C@@H]2O` [estradiol benzoate, Estradiol benzoate], in series [3] (subcutaneously in arrachis oil), the “maximum tolerated dose (MTD)” value is listed as 2 mg/kg.

Take `CC(C)(C)CC(C)(C)c1ccc(O)cc1` [OP]: the “number of assays in which compound interacted” value in series [1] (of the 123 assays conducted) is 16. Besides, the “maximum tolerated dose (MTD)” value in series [3] (subcutaneously in arrachis oil) is on record as 450 mg/kg.

For `CCOC(=O)C(C)(C)Oc1ccc(Cl)cc1` [Clofibrate, clofibrate], the “activity in the 123 assays completed” value in series [1] is listed as “no activity”. The “maximum tolerated dose (MTD)” value in series [3] (oral gavage in 1% NaCMC) is reported as 250 mg/kg.

For orientation: EC50 means the concentration at which the effect is half-maximal. Turning to nonylphenol, the EC50 is roughly 1 µM on estrogen receptor [4] and roughly 0.5 µM on PXR receptors (read-out: EC50 stimulation of PXR receptors).

For the compound `C[C@]12CC[C@@H]3c4ccc(O)cc4CC[C@H]3[C@@H]1CC[C@@H]2O` [Estradiol], at PXR receptors, the “activity on PXR” value is “completely inactive”.

On to `CCCCC(CC)COC(=O)c1ccccc1C(=O)OCC(CC)CCCC` (centres unmarked) [DEHP], for which, in series [1], the “activity in the 123 assays completed” value is “no activity”. The EC50 on estrogen receptor [4] is roughly 1 µM. In addition, the “stimulation of PPARα” value at PPARα is reported as “potently stimulate”. Further, the “maximum tolerated dose (MTD)” value in series [3] (oral gavage in 1% NaCMC) is recorded as 1,000 mg/kg.

Turning to `CC(C)OC(=O)C(C)(C)Oc1ccc(C(=O)c2ccc(Cl)cc2)cc1` [Fenofibrate], the “maximum tolerated dose (MTD)” value in series [3] (oral gavage in 1% NaCMC) is 1,000 mg/kg. For the same compound, on estrogen receptor [5], the “interaction with the estrogen receptor” value is listed as “interacted weakly”. Further, in the series on site-2 sodium channel, the “interaction with the site-2 sodium channel” value was “interacted weakly”.

Regarding `CC(C)(c1ccc(O)cc1)c1ccc(O)cc1` [BPA, bisphenol A], at PXR receptors, the “activity on PXR” value is “completely inactive”. In addition, the “maximum tolerated dose (MTD)” value in series [3] (subcutaneously in arrachis oil) is recorded as 150 mg/kg.
